Patent US12569477B2, “Compositions for synergistically enhancing mitochondrial function” (MITOCHOLINE LTD, priority 2017, dated 2026)

How the values were obtained:
whole-brain ATP levels = settings: for ATP, % (ATP levels in the brain at 15th min after ischemia onset, in percent to baseline): male rats, 10 mg/kg for 7 days, global ischemia, mean±SEM, baseline 100%, saline 35.3 ± 3.0
Procedure: Then global ischemia was induced in rats by cardiac arrest under anesthesia and whole-brain ATP levels were measured by 31P NMR in vivo for 15 min. Results are presented in Table 3 as mean±SEM ATP levels in the brain at 15th min after ischemia onset, in percent to baseline (accepted for 100%).

[1] = tested on: primary neurons and astrocytes; test: Mitochondrial NADH autofluorescence in primary neurons and astrocytes; assay type: cell-based, mouse; settings: for NADH autofluorescence, % of control: after 20 min of incubation; for NADH autofluorescence, % of control / Initial change of mitochondrial NADH level on application: DiSU 50 μM, NAM 20 μM, sodium succinate 50 μM
Procedure: Mixed cultures of cortical neurons and glial cells were prepared as described, from mouse pups 1-3 days postpartum. Neurons were easily distinguishable from glia: they appeared phase bright, had smooth rounded somata and distinct processes, and positioned just above the focal plane of the glial layer. Cells were used at 14-21 DIV. Experiments were conducted in HBSS solution at the 37° C.
To estimate the mitochondrial pool of NADH, maximal activation of mitochondrial respiration is induced by uncoupler FCCP (mitochondrial NADH is taken 0) followed by inhibition of respiration by NaCN (NADH is maximal due to inhibition of consumption). This set up provides evaluation of several characteristics: the rate of NADH production in TCA cycle (recovery of the NADH signal after NaCN), total mitochondrial pool and redox index.

primary myotubes [2] = test: Mitochondrial membrane potential (TMRM) in primary myotubes; assay type: cell-based, rat; settings: DiSU 50 μM, NAM 20 μM, or both (2:1:0.4); n=67 myotubes
Procedure: (§1) Primary Skeletal Muscle Cell culture. Primary myotube cells were obtained from postnatal day 0-2 (P0-P2) rat pups which were sacrificed by decapitation. Briefly, the rats were immersed in 70% ethanol and the hind-limbs removed under a dissection microscope, in dissection solution containing Dulbecco's Phosphate Buffered Saline (PBS) with penicillin streptomycin (5000 units/ml) and Amphotericin B (2.5 mg/L). The tissues were then digested in 0.2% collagenase solution at 37° C. for 30-40 minutes.
The reaction was stopped by adding 2-3 ml fetal bovine serum (FBS), and the tissue suspension was centrifuged at 2010 rpm (700 g) for 10 minutes. The cell pellet was resuspended in pre-warmed growth medium, Dulbecco's modified Eagle's medium (DMEM), containing 20% FBS, 100 i.u./ml penicillin and 200 i.u./ml streptomycin], and plated on 22 mm coverslips that were pre-coated with 0.2% gelatin for 1 hour at 37° C. […]
Tetramethyl rhodamine methyl ester (TMRM) was used to study the changes of the mitochondrial membrane potential (Δψm). […] TMRM fluorescence was excited at 543 nm (HeNe laser), and emission was measured at >560 nm. […] Therefore, the changes in potential are reflected by changes in fluorescence intensity within the mitochondria which is measured after thresholding out the background signal from the cytosol to give a mean value per pixel within the mitochondrial population of a cell. […]

primary myotubes [3] = test: Autophagy/mitophagy: co-localization of mitochondria and lysosomes in primary myotubes; assay type: cell-based, rat; settings: 50 μM DiSU+20 μM NAM or single components in corresponding molar amounts
Description: The upper panels show confocal images of cells loaded with two dyes MitoTracker Green (labeling mitochondria) and LysoTracker Red (labeling lysosomes); the lower panel: quotative evaluation of co-localization of mitochondria and lysosomes in cells. […] Values are presented as mean±SD. **P<0.001. Independent experiments (n) are indicated as dots in the scatter plot.

primary myotubes [4] = test: Mitochondrial NADH redox index and NADH pool in myotube cultures; assay type: cell-based, rat; settings: blend 1: 100 μM DiSU+40 μM NAM; blend 2: 50 μM DiSU+20 μM NAM; choline (100, succinate (50 μM), NAM (50 μM)); FIG. 1B
Procedure: as §1
The reaction was stopped by adding 2-3 ml fetal bovine serum (FBS), and the tissue suspension was centrifuged at 2010 rpm (700 g) for 10 minutes. The cell pellet was resuspended in pre-warmed growth medium, Dulbecco's modified Eagle's medium (DMEM), containing 20% FBS, 100 i.u./ml penicillin and 200 i.u./ml streptomycin], and plated on 22 mm coverslips that were pre-coated with 0.2% gelatin for 1 hour at 37° C. Cells were then cultured in a humidified CO2 incubator (5% CO2 in air) at 37° C. After 2 or 3 days, the medium was changed to a low-serum medium (DMEM containing 10% FBS without antibiotics), and was subsequently renewed every 3 or 4 days. All experiments were performed in vitro between days 2 and 11 in culture when spindle-shaped myoblasts had proliferated and aligned themselves for fusion (˜70% confluency).

[5] = tested on: cortical neurons and glial cells; test: ATP levels in mixed primary cultures of cortical neurons and glial cells (AT1.03 probe, confocal microscopy); settings: same treatments as ATP, control 0
Procedure: Mixed primary cultures of cortical neurons and glial cells were prepared from mouse pups 1-3 days postpartum, as described by Vaarmann A. et al., 2010 (Cell Calcium 2010, 48(2-3):176-82). For measurements of ATP, the cells at 14-21 DIV were transfected for 24 h with the ATP sensing probe AT1.03 (as described in Imamura H et al., PNAS 2009, 106(37):15651-15656) using Lipofectamine 2000 according to the manufacturer's instructions. […] Then, ATP levels in cells were measured using confocal microscopy. […] All data presented were obtained from at least 5 coverslips and 2-3 different cell preparations.
Mean of ATP levels in non-treated cells (control) was accepted for 100%. Effects of the treatments on ATP levels in cells (ΔATP) were calculated by formula: ΔATP=ATPtreat−ATPcontrol, wherein ATPtreat is ATP level in treated cells and ATPcontrol is ATP levels in control cells.

Compound | ATP, % (ATP levels in the brain at 15th min after ischemia onset, in percent to baseline) (whole-brain ATP levels) | NADH autofluorescence, % of control [1] | Initial change of mitochondrial NADH level on application [1] | Increase in TMRM fluorescence (mitochondrial membrane potential) compared to control (primary myotubes [2]) | Autophagy (co-localization of mitochondria and lysosomes) (primary myotubes [3]) | also measured
C[N+](C)(C)CCO.[Cl-] [Choline chloride, choline chloride] | 36.8 ± 5.0% |  |  |  |  | 
choline succinate salt (2:1) [DiSU] | 55.5 ± 4.8 % | 123±6 % of control | only slight initial decrease | increase | significantly increase | ATP levels in the brain under normoxia (whole-brain ATP levels; rats, normoxia): did not affect
O=C([O-])CCC(=O)[O-].[Na+].[Na+] [Sodium succinate, sodium succinate] | 34.3 ± 2.4% | not detected a noticeable increase | fast and significant decrease |  | not | NADH redox index (primary myotubes [4]): did not induce significant changes
O=C([O-])CCC(=O)[O-].[K+].[K+] [Dipotassium succinate, dipotassium succinate] | 40.9 ± 9.0% |  |  |  |  | 
NC(=O)c1cccnc1 [NAM, nicotinamide] |  |  |  | increase | not | Mitochondrial NADH pool, % of control ([1]; NAM 20 μM alone, short term (15-20 min)): 116±8 % of control
O=C(O)c1cccnc1 [Nicotinic acid, nicotinic acid] |  |  |  |  |  | ΔATP, % (ATPtreat−ATPcontrol) [5]: +1%
